# Target: PI3Kδ (p110δ/p85α) (Homo sapiens (Human), UniProt O00329)
# Test: PI3Kδ scintillation proximity assay (Example A3)
# Assay type: biochemical
# Settings: 20 μM ATP, 4 nM PI3Kδ, read-out: PI3Kδ SPA IC50
# Description: [γ-^33P]ATP (10 mCi/mL) was purchased from Perkin-Elmer (Waltham, Mass.). […] PI3Kδ (p110δ/p85α) was purchased from Millipore (Bedford, Mass.). ATP, MgCl2, DTT, EDTA, MOPS and CHAPS were purchased from Sigma-Aldrich (St. Louis, Mo.). Wheat Germ Agglutinin (WGA) YSi SPA Scintillation Beads was purchased from GE healthcare life sciences (Piscataway, N.J.).
# The kinase reaction was conducted in polystyrene 384-well matrix white plate from Thermo Fisher Scientific in a final volume of 25 μL. Inhibitors were first diluted serially in DMSO and added to the plate wells before the addition of other reaction components. The final concentration of DMSO in the assay was 0.5%. The PI3K assays were carried out at room temperature in 20 mM MOPS, pH 6.7, 10 mM MgCl2, 5 mM DTT and CHAPS 0.03%. Reactions were initiated by the addition of ATP, the final reaction mixture consisted of 20 μM PIP2, 20 μM ATP, 0.2 μCi [γ-^33P] ATP, 4 nM PI3Kδ. […] 25 mM EDTA, 400 μM ATP. The final concentration of SPA beads was 1.0 mg/mL. After the plate sealing, plates were shaken overnight at room temperature and centrifuged at 1800 rpm for 10 minutes, the radioactivity of the product was determined by scintillation counting on Topcount (Perkin-Elmer). IC50 determination was performed by fitting the curve of percent control activity versus the log of the inhibitor concentration using the GraphPad Prism 3.0 software.
# PI3Kδ (p110δ/p85α), sequence (O00329 whole entry, species assumed): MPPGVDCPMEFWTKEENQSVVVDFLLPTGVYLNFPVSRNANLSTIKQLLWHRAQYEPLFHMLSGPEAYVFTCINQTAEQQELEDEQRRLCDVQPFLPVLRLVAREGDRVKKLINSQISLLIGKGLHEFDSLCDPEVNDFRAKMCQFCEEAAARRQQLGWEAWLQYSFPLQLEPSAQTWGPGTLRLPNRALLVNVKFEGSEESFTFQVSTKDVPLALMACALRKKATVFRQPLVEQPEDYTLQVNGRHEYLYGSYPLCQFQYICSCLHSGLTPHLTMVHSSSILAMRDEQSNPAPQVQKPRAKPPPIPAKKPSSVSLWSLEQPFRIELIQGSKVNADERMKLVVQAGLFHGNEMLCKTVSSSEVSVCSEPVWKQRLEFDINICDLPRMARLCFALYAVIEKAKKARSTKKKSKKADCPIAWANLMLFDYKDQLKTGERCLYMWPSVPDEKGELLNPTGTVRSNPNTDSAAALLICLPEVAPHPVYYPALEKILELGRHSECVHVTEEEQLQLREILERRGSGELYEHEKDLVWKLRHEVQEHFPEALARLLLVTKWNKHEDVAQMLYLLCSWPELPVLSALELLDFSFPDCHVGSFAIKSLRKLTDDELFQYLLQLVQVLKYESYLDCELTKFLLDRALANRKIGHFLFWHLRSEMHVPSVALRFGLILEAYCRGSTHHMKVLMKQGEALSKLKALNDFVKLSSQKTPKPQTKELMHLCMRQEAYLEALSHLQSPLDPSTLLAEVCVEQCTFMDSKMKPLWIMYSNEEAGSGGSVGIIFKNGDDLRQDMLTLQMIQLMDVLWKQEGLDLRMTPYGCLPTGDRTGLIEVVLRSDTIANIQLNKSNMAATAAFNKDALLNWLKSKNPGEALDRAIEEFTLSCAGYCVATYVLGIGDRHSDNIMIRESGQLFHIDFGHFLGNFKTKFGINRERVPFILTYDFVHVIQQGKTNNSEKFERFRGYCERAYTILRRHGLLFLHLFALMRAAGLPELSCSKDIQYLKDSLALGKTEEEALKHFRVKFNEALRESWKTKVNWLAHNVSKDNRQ
# PI3Kδ (p110δ/p85α), sequence (P27986 whole entry partner, species assumed): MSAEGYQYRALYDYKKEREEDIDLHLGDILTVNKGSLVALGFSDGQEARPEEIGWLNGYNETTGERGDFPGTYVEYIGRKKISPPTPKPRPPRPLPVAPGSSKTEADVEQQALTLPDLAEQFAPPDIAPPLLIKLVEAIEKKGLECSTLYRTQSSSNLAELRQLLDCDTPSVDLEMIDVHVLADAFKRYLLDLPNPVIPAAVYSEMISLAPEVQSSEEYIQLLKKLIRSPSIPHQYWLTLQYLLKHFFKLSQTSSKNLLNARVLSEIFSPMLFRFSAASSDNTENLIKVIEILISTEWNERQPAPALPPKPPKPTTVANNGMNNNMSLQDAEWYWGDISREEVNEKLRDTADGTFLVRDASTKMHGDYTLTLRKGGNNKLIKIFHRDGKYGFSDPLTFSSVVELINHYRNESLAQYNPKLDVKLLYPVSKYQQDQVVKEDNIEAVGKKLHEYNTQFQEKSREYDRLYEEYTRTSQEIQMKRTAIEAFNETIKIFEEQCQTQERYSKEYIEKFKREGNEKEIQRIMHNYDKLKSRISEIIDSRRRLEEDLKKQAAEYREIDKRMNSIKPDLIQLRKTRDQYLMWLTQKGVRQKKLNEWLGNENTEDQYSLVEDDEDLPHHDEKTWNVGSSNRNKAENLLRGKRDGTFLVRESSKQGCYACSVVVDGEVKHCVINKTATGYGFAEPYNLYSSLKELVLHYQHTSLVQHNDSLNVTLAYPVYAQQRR
row,IC50 [nM],Compound
1,< 10,"COc1c(C(C)n2nc(C)c3c(N)ncnc32)cc(Cl)c(F)c1C1CN(C[C@H](C)O)C1 (single isomer, unassigned) [68 (2nd peak)]"
2,< 10,"COc1c(C(C)n2nc(C)c3c(N)ncnc32)cc(Cl)c(C)c1-c1cncc(C(=O)N(C)C2CC2)c1 (centres unmarked) [Example 174, 5-(3-(1-(4-Amino-3-methyl-1H-pyrazolo[3,4-d]pyrimidin-1-yl)ethyl)-5-chloro-2-methoxy-6-methylphenyl)-N-cyclopropyl-N-methylnicotinamide bis(2,2,2-trifluoroacetate)]"
3,< 10,"COc1c(C(C)n2nc(C)c3c(N)ncnc32)cc(Cl)c(C)c1-c1ccc(NCCO)nc1 (centres unmarked) [Example 184, 2-[(5-{3-[1-(4-Amino-3-methyl-1H-pyrazolo[3,4-d]pyrimidin-1-yl)ethyl]-5-chloro-2-methoxy-6-methylphenyl}pyridin-2-yl)amino]ethanol]"
4,< 10,"COc1c(C(C)n2nc(C)c3c(N)ncnc32)cc(Cl)c(C)c1-c1ccc(OCCO)nc1 (centres unmarked) [Example 188, 2-(5-(3-(1-(4-Amino-3-methyl-1H-pyrazolo[3,4-d]pyrimidin-1-yl)ethyl)-5-chloro-2-methoxy-6-methylphenyl)pyridin-2-yloxy)ethanol]"
5,< 10,"Cc1c(Cl)cc(C(C)n2nc(C)c3c(N)ncnc32)c(OCC(F)F)c1-c1ccc(C(=O)N(C)C)nc1 (centres unmarked) [Example 189, 5-(3-(1-(4-Amino-3-methyl-1H-pyrazolo[3,4-d]pyrimidin-1-yl)ethyl)-5-chloro-2-(2,2-difluoroethoxy)-6-methylphenyl)-N,N-dimethylpicolinamide bis(2,2,2-trifluoroacetate)]"
6,< 10,"Cc1c(Cl)cc(C(C)n2nc(C)c3c(N)ncnc32)c(OCC2CC2)c1-c1ccc(C(=O)N(C)C)nc1 (centres unmarked) [Example 190, 5-(3-(1-(4-Amino-3-methyl-1H-pyrazolo[3,4-d]pyrimidin-1-yl)ethyl)-5-chloro-2-(cyclopropylmethoxy)-6-methylphenyl)-N,N-dimethylpicolinamide bis(2,2,2-trifluoroacetate)]"
7,< 10,"COc1c(C(C)n2nc(C(F)F)c3c(N)ncnc32)cc(Cl)c(C)c1-c1ccc(C(=O)N(C)C)nc1 (centres unmarked) [Example 191, 5-(3-{1-[4-Amino-3-(difluoromethyl)-1H-pyrazolo[3,4-d]pyrimidin-1-yl]ethyl}-5-chloro-2-methoxy-6-methylphenyl)-N,N-dimethylpyridine-2-carboxamide]"
8,< 10,"COc1c(C(C)n2nc(C)c3c(N)ncnc32)cc(Cl)c(C)c1CC#N (centres unmarked) [Example 194, {3-[1-(4-Amino-3-methyl-1H-pyrazolo[3,4-d]pyrimidin-1-yl)ethyl]-5-chloro-2-methoxy-6-methylphenyl}acetonitrile]"
9,< 10,"CCOc1c(C(C)n2nc(C)c3c(N)ncnc32)cc(Cl)c(C)c1-c1ccc(C(=O)N(C)C)cn1 (centres unmarked) [Example 208, 6-{3-[1-(4-Amino-3-methyl-1H-pyrazolo[3,4-d]pyrimidin-1-yl)ethyl]-5-chloro-2-ethoxy-6-methylphenyl}-N,N-dimethylnicotinamide bis(trifluoroacetate)]"
10,< 10,"CCOc1c(C(C)n2nc(C)c3c(N)ncnc32)cc(Cl)c(C)c1C#N (centres unmarked) [Example 211, 3-[1-(4-Amino-3-methyl-1H-pyrazolo[3,4-d]pyrimidin-1-yl)ethyl]-5-chloro-2-ethoxy-6-methylbenzonitrile]"

row,Compound,IC50 [nM]
1,"CCOc1c(C(C)n2nc(C)c3c(N)ncnc32)cc(Cl)c(C)c1-c1cnn(CC(N)=O)c1 (centres unmarked) [Example 203, 2-(4-(3-(1-(4-Amino-3-methyl-1H-pyrazolo[3,4-d]pyrimidin-1-yl)ethyl)-5-chloro-2-ethoxy-6-methylphenyl)-1H-pyrazol-1-yl)acetamide]",< 10
